Measured values from patent publication US8501812B2, “Therapeutic methods for type I diabetes” (University of Massachusetts, priority 2005, dated 2013).

What was measured:
[1] = solubility in aqueous media; type: physicochemical
JNK2 = biological target: T1, JNK2 (Homo sapiens, UniProt P45984); assay: c-Jun phosphorylation assay with His6-JNK2 and GST-c-Jun(1-79), γ-32P ATP; type: biochemical; settings: assay consistently shows, despite variability
T1 construct: His6 (N)
Procedure: For example, to 10 μL of 5-amino-anthra(9,1-cd)isothiazol-6-one in 20% DMSO/80% dilution buffer containing of 20 mM HEPES (pH 7.6), 0.1 mM EDTA, 2.5 mM magnesium chloride, 0.004% Triton×100, 2 μg/mL leupeptin, 20 mM β-glycerolphosphate, 0.1 mM sodium vanadate, and 2 mM DTT in water is added 30 μL of 50-200 ng His6-JNK2 in the same dilution buffer. The mixture is pre-incubated for 30 minutes at room temperature. Sixty μL of 10 μg GST-c-Jun(1-79) in assay buffer consisting of 20 mM HEPES (pH 7.6), 50 mM sodium chloride, 0.1 mM EDTA, 24 mM magnesium chloride, 1 mM DTT, 25 mM PNPP, 0.05% Triton×100, 11 μM ATP, and 0.5 μCi γ-32P ATP in water is added and the reaction is allowed to proceed for 1 hour at room temperature. The c-Jun phosphorylation is terminated by addition of 150 μL of 12.5% trichloroacetic acid. After 30 minutes, the precipitate is harvested onto a filter plate, diluted with 50 μL of the scintillation fluid and quantified by a counter. The IC50 values are calculated as the concentration of 5-amino-anthra(9,1-cd)isothiazol-6-one at which the c-Jun phosphorylation is reduced to 50% of the control value. Compounds that inhibit JNK2 preferably have an IC50 value ranging 0.01-10 μM in this assay. 5-Amino-anthra(9,1-cd)isothiazol-6-one has an IC50 according to this assay of 1 μM for JNK2 and 400 nM for JNK3.

T1 sequence (P45984 whole entry): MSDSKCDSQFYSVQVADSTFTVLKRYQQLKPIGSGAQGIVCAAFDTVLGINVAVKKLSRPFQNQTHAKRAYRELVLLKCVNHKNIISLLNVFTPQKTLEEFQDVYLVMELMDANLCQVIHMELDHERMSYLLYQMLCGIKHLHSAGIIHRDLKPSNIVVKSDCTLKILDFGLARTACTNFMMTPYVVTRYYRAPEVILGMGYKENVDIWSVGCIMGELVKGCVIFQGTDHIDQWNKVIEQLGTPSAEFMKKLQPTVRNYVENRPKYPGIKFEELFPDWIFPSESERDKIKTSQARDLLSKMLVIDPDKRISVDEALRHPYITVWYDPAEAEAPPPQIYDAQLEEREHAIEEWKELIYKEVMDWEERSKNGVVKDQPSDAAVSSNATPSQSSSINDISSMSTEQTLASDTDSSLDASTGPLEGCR

Q: Which “solubility in aqueous media” value [1] does the source give for `Nc1ccc2snc3c2c1C(=O)c1ccccc1-3` [5-amino-anthra(9,1-cd)isothiazol-6-one] here?
A: The value was “limited solubility”.

Q: And the “selectivity of JNK2 inhibition” value (JNK2)?
A: Its value is “selectively inhibits JNK2”.
